Consider 1 molecule from publication PMC4628998 (BioMed Research International, 2015).

In the assay the target is T1, CK2α (Zea mays) (Zea mays, UniProt P28523).
T1 construct: gene ACK2; catalytic subunit CK2α alone
The experiment in a line: radiometric peptide phosphorylation assay, residual activity at […]. It counts as biochemical.

T1 sequence (P28523 whole entry): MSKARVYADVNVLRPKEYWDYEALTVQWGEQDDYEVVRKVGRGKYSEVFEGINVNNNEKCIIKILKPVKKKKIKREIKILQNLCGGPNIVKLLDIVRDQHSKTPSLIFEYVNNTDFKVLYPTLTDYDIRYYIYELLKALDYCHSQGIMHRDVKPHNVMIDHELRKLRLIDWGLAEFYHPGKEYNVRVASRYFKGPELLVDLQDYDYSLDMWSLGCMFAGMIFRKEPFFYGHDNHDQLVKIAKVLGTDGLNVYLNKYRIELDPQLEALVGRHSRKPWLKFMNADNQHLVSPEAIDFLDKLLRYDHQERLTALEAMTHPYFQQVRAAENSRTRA

With `O=C1c2ccc(O)c(O)c2C(=O)c2c(O)ccc(O)c21` [quinalizarin, 1,2,5,8-tetrahydroxyanthraquinone], the activity at 1 µM stood at 33%.
